Tested on: LG0703-F948-PDC complex spheroid viability
Assay: Anticancer human tumor LG0703-F948-PDC patient-derived lung adenocarcinoma cell line growth inhibition [RAS]
Settings: for IC50: curve of first compound; for viability, T/C: stronger effect = lower value; active = viability on the fitted dose curve at most 10% of control; inactive = the rest
In short: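 Multi-cell-type spheroids: tumor cells plus HUVEC endothelial cells and mesenchymal stem cells. RAS-pathway inhibitors were combined with targeted agents, each dosed in half-log steps down from clinical Cmax, or from 10 microM when Cmax was unknown.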

[1] = second compound 0.0316 µM, first compound 0.00316 µM
[2] = second compound 0.0316 µM, first compound 0.01 µM
[3] = second compound 0.0316 µM, first compound 0.0316 µM
[4] = second compound 0.0316 µM, first compound 0.1 µM
[5] = second compound 0.0316 µM, first compound 0.316 µM
[6] = second compound 0.0316 µM, first compound 1 µM
[7] = second compound 0.1 µM, first compound 0.00316 µM
[8] = second compound 0.1 µM, first compound 0.01 µM
[9] = second compound 0.1 µM, first compound 0.0316 µM
[10] = second compound 0.1 µM, first compound 0.1 µM
[11] = second compound 0.1 µM, first compound 0.316 µM
[12] = second compound 0.1 µM, first compound 1 µM
[13] = second compound 0.316 µM, first compound 0.00316 µM
[14] = second compound 0.316 µM, first compound 0.01 µM
[15] = second compound 0.316 µM, first compound 0.0316 µM
[16] = second compound 0.316 µM, first compound 0.1 µM
[17] = second compound 0.316 µM, first compound 0.316 µM
[18] = second compound 0.316 µM, first compound 1 µM
[19] = second compound 1 µM, first compound 0.00316 µM
[20] = second compound 1 µM, first compound 0.01 µM
[21] = second compound 1 µM, first compound 0.0316 µM
[22] = second compound 1 µM, first compound 0.1 µM
[23] = second compound 1 µM, first compound 0.316 µM
[24] = second compound 1 µM, first compound 1 µM
[25] = second compound 3.16 µM, first compound 0.00316 µM
[26] = second compound 3.16 µM, first compound 0.01 µM
[27] = second compound 3.16 µM, first compound 0.0316 µM
[28] = second compound 3.16 µM, first compound 0.1 µM
[29] = second compound 3.16 µM, first compound 0.316 µM
[30] = second compound 3.16 µM, first compound 1 µM
[31] = second compound 10 µM, first compound 0.00316 µM
[32] = second compound 10 µM, first compound 0.01 µM
[33] = second compound 10 µM, first compound 0.0316 µM
[34] = second compound 10 µM, first compound 0.1 µM
[35] = second compound 10 µM, first compound 0.316 µM
[36] = second compound 10 µM, first compound 1 µM
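Also: spheroids exposed to agents for 7 days.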
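For viability, T/C in this document: 100% = DMSO vehicle wells.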

C=CC(=O)Nc1cc(Nc2nccc(-c3cn(C)c4ccccc34)n2)c(OC)cc1N(C)CCN(C)C + C#Cc1c(F)ccc2cc(O)cc(-c3ncc4c(N5CC6CCC(C5)N6)nc(OCC56CCCN5CC(F)C6)nc4c3F)c12
< 3.16 nM: IC50 (second compound 3.16 µM) | IC50 (second compound 10 µM)
inactive: viability, T/C [1] 96.5% | viability, T/C [2] 53% | viability, T/C [3] 17.6% | viability, T/C [4] 12.5% | viability, T/C [5] 11.1% | viability, T/C [6] 8.76% | viability, T/C [7] 84.3% | viability, T/C [8] 47.4% | viability, T/C [9] 15.8% | viability, T/C [10] 14% | viability, T/C [11] 13.8% | viability, T/C [12] 8.56% | viability, T/C [13] 69.2% | viability, T/C [14] 34.9% | viability, T/C [15] 15.6% | viability, T/C [16] 11.2% | viability, T/C [19] 56.2% | viability, T/C [20] 31.5% | viability, T/C [21] 14.2% | viability, T/C [25] 48.8% | viability, T/C [26] 25% | viability, T/C [27] 10.1% | viability, T/C [31] 33.5% | viability, T/C [32] 10.2%
active: viability, T/C [17] 10.1% | viability, T/C [18] 8.31% | viability, T/C [22] 10.2% | viability, T/C [23] 9.15% | viability, T/C [24] 7.05% | viability, T/C [28] 11.4% | viability, T/C [29] 8.78% | viability, T/C [30] 6.8% | viability, T/C [33] 10.5% | viability, T/C [34] 7.37% | viability, T/C [35] 6.33% | viability, T/C [36] 4.43%
9.22 nM: IC50 (second compound 0.1 µM)
11 nM: IC50 (second compound 0.0316 µM)
6.02 nM: IC50 (second compound 0.316 µM)
4.22 nM: IC50 (second compound 1 µM)

CCn1c(-c2cccnc2C(C)OC)c2c3cc(ccc31)N1CCOC(CC(NC(=O)C(C(C)C)N(C)C(=O)C3(F)CCN(C(=O)C#CC(C)(C)N(C)C)CC3)C(=O)N3CCCC(N3)C(=O)OCC(C)(C)C2)C1 (stereo unspecified)
inactive: viability, T/C (compound 0.000949 µM) 99.8% [middle of 8 runs] | viability, T/C (compound 0.00949 µM) 101% [middle of 8 runs] | viability, T/C (compound 0.03 µM) 101% [middle of 8 runs] | viability, T/C (compound 0.0949 µM) 82.6% [middle of 8 runs] | viability, T/C (compound 0.3 µM) 50.1% [middle of 8 runs]

CCN1CCN(Cc2ccc(Nc3ncc(F)c(-c4cc(F)c5nc(C)n(C(C)C)c5c4)n3)nc2)CC1 + C#Cc1c(F)ccc2cc(O)cc(-c3ncc4c(N5CC6CCC(C5)N6)nc(OCC56CCCN5CC(F)C6)nc4c3F)c12
inactive: viability, T/C [1] 114% | viability, T/C [2] 84% | viability, T/C [3] 78.3% | viability, T/C [4] 92.2% | viability, T/C [5] 82.7% | viability, T/C [6] 79.8% | viability, T/C [7] 119% | viability, T/C [8] 90.3% | viability, T/C [9] 92.1% | viability, T/C [10] 90.5% | viability, T/C [11] 74% | viability, T/C [12] 69.7% | viability, T/C [13] 103% | viability, T/C [14] 99.5% | viability, T/C [15] 84.5% | viability, T/C [16] 81.1% | viability, T/C [17] 75.5% | viability, T/C [18] 70% | viability, T/C [19] 84% | viability, T/C [20] 77.7% | viability, T/C [21] 68.5% | viability, T/C [22] 68.7% | viability, T/C [23] 77.6% | viability, T/C [24] 64.1% | viability, T/C [25] 73.2% | viability, T/C [26] 71.9% | viability, T/C [27] 56.8% | viability, T/C [28] 57% | viability, T/C [29] 71.3% | viability, T/C [30] 45% | viability, T/C [31] 62.5% | viability, T/C [32] 44.3% | viability, T/C [33] 47.7% | viability, T/C [34] 47.5% | viability, T/C [35] 49.5% | viability, T/C [36] 36.9%
7.25 nM: IC50 (second compound 10 µM)
> 1000 nM: IC50 (second compound 0.0316 µM) | IC50 (second compound 0.1 µM) | IC50 (second compound 0.316 µM) | IC50 (second compound 1 µM) | IC50 (second compound 3.16 µM)

O=C(c1ccc(F)c(F)c1Nc1ccc(I)cc1F)N1CC(O)([C@@H]2CCCCN2)C1 + CCn1c(-c2cc(N3CCN(C)CC3)cnc2C(C)OC)c2c3cc(ccc31)-c1csc(n1)CC(NC(=O)C1CC1C)C(=O)N1CCCC(N1)C(=O)OCC(C)(C)C2
active: viability, T/C (second compound 0.003 µM, first compound 1 µM) 8.17% | viability, T/C (second compound 0.00949 µM, first compound 0.1 µM) 6.3% | viability, T/C (second compound 0.00949 µM, first compound 0.316 µM) 8.85% | viability, T/C (second compound 0.00949 µM, first compound 1 µM) 8.14% | viability, T/C (second compound 0.03 µM, first compound 0.01 µM) 8.04% | viability, T/C (second compound 0.03 µM, first compound 0.0316 µM) 4.84% | viability, T/C (second compound 0.03 µM, first compound 0.1 µM) 3% | viability, T/C (second compound 0.03 µM, first compound 0.316 µM) 5.82% | viability, T/C (second compound 0.03 µM, first compound 1 µM) 4.58% | viability, T/C (second compound 0.0949 µM, first compound 0.00316 µM) 7.33% | viability, T/C (second compound 0.0949 µM, first compound 0.01 µM) 6.13% | viability, T/C (second compound 0.0949 µM, first compound 0.0316 µM) 3.55% | viability, T/C (second compound 0.0949 µM, first compound 0.1 µM) 3.1% | viability, T/C (second compound 0.0949 µM, first compound 0.316 µM) 3.05% | viability, T/C (second compound 0.0949 µM, first compound 1 µM) 3.07% | viability, T/C (second compound 0.3 µM, first compound 0.00316 µM) 5.13% | viability, T/C (second compound 0.3 µM, first compound 0.01 µM) 3.55% | viability, T/C (second compound 0.3 µM, first compound 0.0316 µM) 2.8% | viability, T/C (second compound 0.3 µM, first compound 0.1 µM) 2.47% | viability, T/C (second compound 0.3 µM, first compound 0.316 µM) 2.61% | viability, T/C (second compound 0.3 µM, first compound 1 µM) 2.35%
inactive: viability, T/C (second compound 0.000949 µM, first compound 0.00316 µM) 59.2% | viability, T/C (second compound 0.000949 µM, first compound 0.01 µM) 38.7% | viability, T/C (second compound 0.000949 µM, first compound 0.0316 µM) 28% | viability, T/C (second compound 0.000949 µM, first compound 0.1 µM) 19.2% | viability, T/C (second compound 0.000949 µM, first compound 0.316 µM) 18.5% | viability, T/C (second compound 0.000949 µM, first compound 1 µM) 14.4% | viability, T/C (second compound 0.003 µM, first compound 0.00316 µM) 37.1% | viability, T/C (second compound 0.003 µM, first compound 0.01 µM) 22.3% | viability, T/C (second compound 0.003 µM, first compound 0.0316 µM) 19.1% | viability, T/C (second compound 0.003 µM, first compound 0.1 µM) 10.5% | viability, T/C (second compound 0.003 µM, first compound 0.316 µM) 11.4% | viability, T/C (second compound 0.00949 µM, first compound 0.00316 µM) 17.4% | viability, T/C (second compound 0.00949 µM, first compound 0.01 µM) 15.4% | viability, T/C (second compound 0.00949 µM, first compound 0.0316 µM) 8.52% | viability, T/C (second compound 0.03 µM, first compound 0.00316 µM) 10.5%
5.33 nM: IC50 (second compound 0.000949 µM)
< 3.16 nM: IC50 (second compound 0.003 µM) | IC50 (second compound 0.00949 µM) | IC50 (second compound 0.03 µM) | IC50 (second compound 0.0949 µM) | IC50 (second compound 0.3 µM)

Reference: PubChem BioAssay AID2060890 (Molecular Pharmacology Branch, DTP, NCI, 2025)
